Values quoted from earlier work in patent US20240156991A1, “STABLE FORMULATIONS OF INDOCYANINE GREEN” (PROVEPHARM LIFE SOLUTIONS, priority 2021, published 2024).

CC1(C)C(/C=C/C=C/C=C/C=C2\N(CCCCS(=O)(=O)O)c3ccc4ccccc4c3C2(C)C)=[N+](CCCCS(=O)(=O)O)c2ccc3ccccc3c21 [ICG, Indocyanine green]
reduction of absorbance at spectral peak (after 10 hours of storage in water and direct light): 10% | fluorescence intensity lost (stored at 4° C. in the dark, three days): 20%
